According to US20170368082A1, “FORMULATIONS OF BRINCIDOFOVIR” (priority 2016, published 2017):

Assay: Tissue distribution by quantitative whole-body autoradiography (QWBA)
Type: in vivo, male Sprague Dawley and Long-Evans rats
Details: for Cmax Ratio (PO/IV) / AUCall Ratio (PO/IV): 15 mg/kg, Group 7 vs Group 4
Protocol: The study utilized 4 groups of male SD rats (albino), and 3 groups of male LE rats (pigmented); a total of 39 rats. All animals were obtained from Hilltop Lab Animals, Inc. (Scottdale, Pa.). […] Rats in Group 5 were administered a single 2-h IV infusion of [^14C]brincidofovir at a target dose of 2 mg/kg. […] Three dosing formulations (one for high dose IV, one for low dose IV, and one for PO dose) were prepared at QPS on the day of dosing. The IV formulation for Groups 1, 2, 3, and 4 contained a vehicle of 10 mM sodium phosphate buffer in 5% dextrose solution at pH 8.0(±0.1).
Each animal, at their respective termination time points, was euthanized for QWBA analysis immediately after blood collection. One rat per time point per Group was euthanized as listed below.
The blood samples were maintained on wet ice (approximately 4° C.) and then centrifuged to obtain plasma within 1 h of the blood collection time. Centrifuge settings were recorded in the study notebook. Duplicate aliquots of plasma (0.050 mL) were analyzed for radioactivity using direct counting by LSC, and residual plasma was stored at approximately −70° C. and was saved for possible future analysis under a separate study protocol. Residual red blood cells were discarded as radioactive waste.
The pinna, distal limbs, hair, and tail were removed from each frozen carcass and each frozen carcass was embedded in an aqueous suspension of approximately 2% (w/v) carboxymethylcellulose and frozen into a block. The blocks were stored at approximately −20° C. prior to sectioning. Each blocked carcass was mounted on the object stage of a cryomicrotome (Leica CM3600 Cryomacrocut, Nussloch, Germany and Vibratome 9800, St. Louis, Mo.) maintained at approximately −20° C. and internal standards (3), which were plasma fortified with [^14C]-glucose at one concentration (approximately 0.05 μCi/mL), were placed into the frozen blocks, prior to sectioning, and were used for section thickness quality control. A number of whole-body sections (approximately 40 μm thick) were taken in the sagittal plane at various levels of interest using a whole-body cryomicrotome set at −20° C. Sagittal sections (20-50 μm thick) of frozen carcasses were exposed to phosphor imaging plates. Regions of images in tissues were converted to concentrations using standards. All of the major tissues, organs, and biological fluids were represented.
Tissue concentration data was determined for the following tissues and/or contents: adipose (brown and white), adrenal gland, bile (in duct), blood (cardiac), bone, bone marrow, brain (cerebrum, cerebellum, medulla), cecum (and contents), large intestine (and contents), epididymis, esophagus, eye (uvea and lens), Harderian gland, heart, kidney (cortex and medulla), liver, lung, lymph node, pancreas, pituitary gland, prostate gland, salivary gland, seminal vesicles, skeletal muscle, skin (pigmented and non-pigmented), small intestine (and contents), stomach (gastric mucosa and contents), spleen, spinal cord, testis, thymus, thyroid, and urinary bladder (and contents).
The imaging plate and sections were placed in light-tight exposure cassettes, in a copper-lined lead safe, for a 4-day exposure at room temperature. […] Quantification was performed by image densitometry using MCD image analysis software (v. 7.0, Interfocus Imaging Ltd) and a standard curve constructed from the integrated response [i.e., Molecular Dynamics Counts per square millimeter (MDC/mm^2)] and the nominal concentrations of the ^14C-calibration standards. The concentrations of radioactivity were expressed as the μg equivalents of [^14C]brincidofovir per gram sample (μg equiv/g). A lower limit of quantification (LLOQ) was applied to the data (See section 6.7.4).
Tissue concentrations that fell below the LLOQ were identified as being below the quantification limit (BQL). Tissue areas that were not visualized on autoradiographic images were identified as no sample (NS) and reported as BQL.

## CCCCCCCCCCCCCCCCOCCCOP(=O)(O)CO[C@H](CO)Cn1ccc(N)nc1=O [[^14C] brincidofovir]
Liver
  Cmax Ratio (PO/IV): 0.16
Liver, 2 h IV infusion 15 mg/kg, Group 4
  AUCall: 2149.7645 μg equiv · h/g
Liver, 2 h IV infusion 15 mg/kg, Group 4, LLOQ 0.036
  Tissue Concentration (168 h): 0.451 μg equiv/g
Liver, PO 15 mg/kg, Group 7, LLOQ 0.034
  Tissue Concentration (168 h): 0.393 μg equiv/g
Liver, PO 15 mg/kg, Group 7
  AUCall: 1426.6340 μg equiv · h/g
Lung
  AUCall Ratio (PO/IV): 0.29
  Cmax Ratio (PO/IV): 0.16
Lung, 2 h IV infusion 15 mg/kg, Group 4
  AUCall: 180.1960 μg equiv · h/g
Lung, 2 h IV infusion 15 mg/kg, Group 4, LLOQ 0.036
  Tissue Concentration (168 h): 0.178 μg equiv/g
Lung, PO 15 mg/kg, Group 7, LLOQ 0.034
  Tissue Concentration (168 h): 0.065 μg equiv/g
Lung, PO 15 mg/kg, Group 7
  AUCall: 53.1145 μg equiv · h/g
Lymph Node
  AUCall Ratio (PO/IV): 0.41
  Cmax Ratio (PO/IV): 0.11
Lymph Node, 2 h IV infusion 15 mg/kg, Group 4
  AUCall: 208.8530 μg equiv · h/g
Lymph Node, 2 h IV infusion 15 mg/kg, Group 4, LLOQ 0.036
  Tissue Concentration (168 h): 0.247 μg equiv/g
Lymph Node, PO 15 mg/kg, Group 7, LLOQ 0.034
  Tissue Concentration (168 h): 0.129 μg equiv/g
Lymph Node, PO 15 mg/kg, Group 7
  AUCall: 85.04 μg equiv · h/g
Pancreas
  AUCall Ratio (PO/IV): 0.29
  Cmax Ratio (PO/IV): 0.13
Pancreas, 2 h IV infusion 15 mg/kg, Group 4
  AUCall: 36.2010 μg equiv · h/g
Pancreas, 2 h IV infusion 15 mg/kg, Group 4, LLOQ 0.036
  Tissue Concentration (168 h): BQL
Pancreas, PO 15 mg/kg, Group 7, LLOQ 0.034
  Tissue Concentration (168 h): BQL
Pancreas, PO 15 mg/kg, Group 7
  AUCall: 10.3720 μg equiv · h/g
Pituitary Gland
  AUCall Ratio (PO/IV): 0.20
  Cmax Ratio (PO/IV): 0.05
Pituitary Gland, 2 h IV infusion 15 mg/kg, Group 4
  AUCall: 155.1085 μg equiv · h/g
Pituitary Gland, 2 h IV infusion 15 mg/kg, Group 4, LLOQ 0.036
  Tissue Concentration (168 h): 0.189 μg equiv/g
Pituitary Gland, PO 15 mg/kg, Group 7, LLOQ 0.034
  Tissue Concentration (168 h): 0.042 μg equiv/g
Pituitary Gland, PO 15 mg/kg, Group 7
  AUCall: 30.5073 μg equiv · h/g
Prostate Gland
  AUCall Ratio (PO/IV): 0.62
  Cmax Ratio (PO/IV): 0.30
Prostate Gland, 2 h IV infusion 15 mg/kg, Group 4
  AUCall: 24.3415 μg equiv · h/g
Prostate Gland, 2 h IV infusion 15 mg/kg, Group 4, LLOQ 0.036
  Tissue Concentration (168 h): BQL
Prostate Gland, PO 15 mg/kg, Group 7, LLOQ 0.034
  Tissue Concentration (168 h): BQL
Prostate Gland, PO 15 mg/kg, Group 7
  AUCall: 7.6578 μg equiv · h/g
Salivary Gland
  AUCall Ratio (PO/IV): 0.15
  Cmax Ratio (PO/IV): 0.09
Salivary Gland, 2 h IV infusion 15 mg/kg, Group 4
  AUCall: 60.9180 μg equiv · h/g
Salivary Gland, 2 h IV infusion 15 mg/kg, Group 4, LLOQ 0.036
  Tissue Concentration (168 h): 0.056 μg equiv/g
Salivary Gland, PO 15 mg/kg, Group 7, LLOQ 0.034
  Tissue Concentration (168 h): BQL
Salivary Gland, PO 15 mg/kg, Group 7
  AUCall: 9.1933 μg equiv · h/g
Seminal Vesicles
  AUCall Ratio (PO/IV): 0.17
  Cmax Ratio (PO/IV): 0.45
Seminal Vesicles, 2 h IV infusion 15 mg/kg, Group 4
  AUCall: 297.3580 μg equiv · h/g
Seminal Vesicles, 2 h IV infusion 15 mg/kg, Group 4, LLOQ 0.036
  Tissue Concentration (168 h): 0.361 μg equiv/g
Seminal Vesicles, PO 15 mg/kg, Group 7, LLOQ 0.034
  Tissue Concentration (168 h): 0.063 μg equiv/g
Seminal Vesicles, PO 15 mg/kg, Group 7
  AUCall: 50.2500 μg equiv · h/g
Skeletal Muscle
  AUCall Ratio (PO/IV): 0.13
  Cmax Ratio (PO/IV): 0.16
Skeletal Muscle, 2 h IV infusion 15 mg/kg, Group 4
  AUCall: 10.3485 μg equiv · h/g
Skeletal Muscle, 2 h IV infusion 15 mg/kg, Group 4, LLOQ 0.036
  Tissue Concentration (168 h): BQL
Skeletal Muscle, PO 15 mg/kg, Group 7, LLOQ 0.034
  Tissue Concentration (168 h): BQL
Skeletal Muscle, PO 15 mg/kg, Group 7
  AUCall: 1.3265 μg equiv · h/g
Skin (non-pigmented)
  AUCall Ratio (PO/IV): 0.10
  Cmax Ratio (PO/IV): 0.17
Skin (non-pigmented), 2 h IV infusion 15 mg/kg, Group 4
  AUCall: 146.2340 μg equiv · h/g
